# Results: publication PMC3996151, “Safety and pharmacological characterization of the molecular tweezer CLR01 – a broad-spectrum inhibitor of amyloid proteins’ toxicity” (BMC Pharmacology & Toxicology, 2014)
# Marks after values point to notes of the source that are not given here.
# Key:
# C57BL/6J mice [1] = assay: Acute toxicity: single IP injection, behaviour, histopathology and serum chemistry after 24 h; format: in vivo, mouse; conditions: for Alanine aminotransferase / Albumin / Alkaline phosphatase / Aspartate aminotransferase / Blood urea nitrogen / Cholesterol / Creatinine / Glucose / Lactate dehydrogenase / Total bilirubin / Total protein: serum, acute, mean
# Method: (§1) For acute-toxicity studies, 2-m old C57BL/6J mice were administered saline-vehicle, 10 mg/kg, or 100 mg/kg CLR01 by a single intraperitoneal (IP) injection. The mice were sacrificed 24-h after the injection. For chronic toxicity studies, 2-m old C57BL/6J mice were administered saline-vehicle, 3 mg/kg, or 10 mg/kg CLR01 by daily IP injection for 30 days. Acute-study mice were visually monitored for 1 h after injection and then every 50 min for 10 min over the first 6 h of the experiment for changes in activity and behavior. The mice also were monitored every 110 min for 10 min during the last 6 h of the experiment until they were sacrificed. Chronic-study mice were monitored for 1 h after injection and then 3 times a day for 10 min each, every day of the first week. During that week there were no appreciable changes in the behavior, appearance, or weight of the mice. Therefore, monitoring was reduced to twice a day during the remainder of the experiment. On all occasions, the mice were monitored for any signs of severe toxicity, including bruising or bleeding, pale mucous membranes or extremities, diarrhea, dehydration, neurological signs, such as difficulty ambulating or paralysis, tachypnea or dyspnea, or abdominal distension.
# (§2) Following the treatment, mice were anesthetized with pentobarbital and blood was collected by cardiac puncture and placed in tubes containing a clot activator for serum separation (Capiject T-MG tubes, Terumo Medical Products, Somerset, NJ). Then, the lungs were filled through the trachea with 4% paraformaldehyde to prevent collapse, and tissues (brain, heart-lung, liver, kidney, and spleen) were collected and fixed for 72 h in 4% paraformaldehyde at a ratio of ~1:10 tissue:fixative (v/v). Tissues then were transferred into a 70%-ethanol solution and transferred to the UCLA Mouse Pathology Core for paraffin embedding, sectioning, and tissue histopathology analysis. Serum was analyzed by the UCLA Division of Laboratory Animal Medicine (DLAM) Animal Serology & Molecular Diagnostic Laboratory for an 11-panel serum chemical analysis using the ACE Alera Clinical Chemistry system (Alfa Wassermann Diagnostic Technologies, West Caldwell, NJ). The panel included: alanine aminotransferase, aspartate aminotransferase, albumin, alkaline phosphatase, creatinine, total bilirubin, lactate dehydrogenase, blood urea nitrogen, cholesterol, total protein, and glucose.
# (§3) If CLR01 indeed operates by a process-specific mechanism and remodels the abnormal aggregation of amyloidogenic proteins at substantially lower concentrations than concentrations that would perturb normal physiological processes, one would expect the compound to have a high therapeutic index. To calculate the therapeutic index, a lethal dose must be reached. […] The next rational step was to test the safety margin of CLR01 in vivo. Based on the in vitro and cell culture data, we expected that 100 mg/kg would be lethal to mice and therefore used it as the highest dose in our safety-evaluation experiments. We assessed the safety of CLR01 in 2-m old, male, WT mice either 24 h following a single IP injection of 10 or 100 mg/kg (acute administration) or after daily IP injection of 3 or 10 mg/kg for 30 days (chronic administration). Following euthanasia, serum was collected for chemical analysis and tissues were harvested for histopathology evaluation.
# C57BL/6J mice [2] = assay: Chronic toxicity: daily IP injection for 30 days, behaviour, histopathology and serum chemistry; format: in vivo, mouse; conditions: for Alanine aminotransferase / Albumin / Alkaline phosphatase / Aspartate aminotransferase / Blood urea nitrogen / Cholesterol / Creatinine / Glucose / Lactate dehydrogenase / Total bilirubin / Total protein: serum, 2-m old WT mice, chronic, 30 day, mean
# Method: as §1, §2, §3
# [3] = Plasma concentration by LC-MS after SC, IV or oral administration; format: in vivo, mouse
# Method: For studies of plasma concentration, CLR01 was administered by either SC or intravenous (IV) injection at 1 mg/kg, or by oral gavage at 10 mg/kg, and plasma was collected at time points between 0.33 - 24 h. Three mice were used per time point. The concentration of CLR01 in plasma was determined by Wolfe Laboratories Inc. (Watertown, MA) using liquid chromatography-mass spectrometry (LC-MS) by interpolation of sample peak area data into the calibration curve.
# [4] = set-up: method as in PMID 23183235; conditions: 3H-CLR01 IV, 12-m old WT and 3×Tg AD mice; cited from earlier work
# [5] = test system: cytochrome P450 system, five major isoforms; set-up: method as in PMID 23183235; conditions: half-maximal inhibition concentration values above levels expected to cause drug–drug interactions; cited from earlier work
# [6] = set-up: method as in PMID 23183235; conditions: human liver microsomes; cited from earlier work
# α-synuclein (α-syn) = test system: α-synuclein (α-syn); set-up: method as in PMID 22373667; conditions: up to 10 μM in the water environment; cited from earlier work
# [7] = 2-m old WT mice, 24 h after single IP dose 10 mg/kg, N = 8
# [8] = 2-m old WT mice, 24 h after single IP dose 100 mg/kg, N = 8
# [9] = 2-m old WT mice, 24 h after single IP dose 100 mg/kg, N = 8, p < 0.001 vs control
# [10] = 2-m old WT mice, 24 h after single IP dose 100 mg/kg, N = 8, p < 0.01 vs control
# [11] = daily IP 3 or 10 mg/kg for 30 days
structure (smiles),measurement,setting,value
O=P(O)(O)Oc1c2c(c(OP(=O)(O)O)c3c1C1CC3c3cc4c(cc31)C1CC4c3ccccc31)C1CC2c2cc3c(cc21)C1CC3c2ccccc21 [CLR01],Single non-lethal dose relative to the efficacious dose,C57BL/6J mice [1]; 100 mg/kg single dose,"2,500 fold"
same,Alanine aminotransferase,C57BL/6J mice [1]; [7],36.1 U/L
same,Albumin,C57BL/6J mice [1]; [7],2.3 g/dL
same,Alkaline phosphatase,C57BL/6J mice [1]; [7],126.1 U/L
same,Aspartate aminotransferase,C57BL/6J mice [1]; [7],89.5 U/L
same,Blood urea nitrogen,C57BL/6J mice [1]; [7],19.8 mg/dL
same,Cholesterol,C57BL/6J mice [1]; [7],91.5 mg/dL
same,Creatinine,C57BL/6J mice [1]; [7],0.2 mg/dL
same,Glucose,C57BL/6J mice [1]; [7],297.8 mg/dL
same,Lactate dehydrogenase,C57BL/6J mice [1]; [7],325.2 U/L
same,Total bilirubin,C57BL/6J mice [1]; [7],0.2 mg/dL
same,Total protein,C57BL/6J mice [1]; [7],3.7 g/dL
same,Albumin,C57BL/6J mice [1]; [8],1.9 g/dL
same,Alkaline phosphatase,C57BL/6J mice [1]; [8],101.5 U/L
same,Blood urea nitrogen,C57BL/6J mice [1]; [8],22.0 mg/dL
same,Creatinine,C57BL/6J mice [1]; [8],0.4 mg/dL
same,Total bilirubin,C57BL/6J mice [1]; [8],0.3 mg/dL
same,Total protein,C57BL/6J mice [1]; [8],3.6 g/dL
same,Alanine aminotransferase,C57BL/6J mice [1]; [9],1282.9*** U/L
same,Glucose,C57BL/6J mice [1]; [9],104.3*** mg/dL
same,Lactate dehydrogenase,C57BL/6J mice [1]; [9],2439.8*** U/L
same,Aspartate aminotransferase,C57BL/6J mice [1]; [10],565.3** U/L
same,Cholesterol,C57BL/6J mice [1]; [10],20.8** mg/dL
same,Behavior (levels and type of activity and grooming),C57BL/6J mice [1]; single IP 10 mg/kg,behaved indistinguishably from control mice
same,Incidence of liver degeneration and necrosis,"C57BL/6J mice [1]; single IP 10 mg/kg, 24 h",one of eight
same,Duration of decreased activity and droopy eyelids in some mice,C57BL/6J mice [1]; single IP 100 mg/kg,up to 2 h
same,Duration of signs of distress following the injection,C57BL/6J mice [1]; single IP 100 mg/kg,~ 30 min
same,Behavior after injection,"C57BL/6J mice [1]; single IP 100 mg/kg, 2-m old WT mice",obvious signs of distress
same,Survival,"C57BL/6J mice [1]; single IP 100 mg/kg, 24 h",all the mice in the high-dose group survived
same,Liver histopathology,"C57BL/6J mice [1]; single IP 100 mg/kg, 24 h, all mice, centrilobular and midlobular regions",liver degeneration and necrosis
same,"Histopathology of heart, lung, spleen and brain","C57BL/6J mice [1]; single IP 10 or 100 mg/kg, 24 h",indistinguishable from those of control mice
same,Lethal dose,"C57BL/6J mice [1]; single IP injection, mice",> 100 mg/kg
same,Chronically administered dose without toxicity relative to the efficacious dose of 40 μg/kg/day,C57BL/6J mice [2]; 10 mg/kg/day,250 times
same,Liver histopathology,"C57BL/6J mice [2]; daily IP 3 mg/kg for 30 days, a few mice, judged not pathogenic and unlikely related to treatment",mild-to-moderate multifocal extramedullary hematopoiesis in the liver
same,Pancreas finding,"C57BL/6J mice [2]; daily IP 3 mg/kg for 30 days, two mice, unlikely related to treatment",Mild pancreatitis
same,Reduction in blood cholesterol compared to the control group,C57BL/6J mice [2]; daily IP 10 mg/kg for 30 days,~ 40%
same,Tissue histopathology,C57BL/6J mice [2]; daily IP 10 mg/kg for 30 days,no signs of tissue pathology or liver necrosis
same,Behavior (levels and type of activity and grooming),C57BL/6J mice [2]; [11],behaved indistinguishably from control mice
same,"Histopathology of heart, lung, spleen and brain",C57BL/6J mice [2]; [11],indistinguishable from vehicle-treated mice
same,Alanine aminotransferase,"C57BL/6J mice [2]; daily IP dose 3 mg/kg, N = 10",43.1 U/L
same,Albumin,"C57BL/6J mice [2]; daily IP dose 3 mg/kg, N = 10",2.8 g/dL
same,Alkaline phosphatase,"C57BL/6J mice [2]; daily IP dose 3 mg/kg, N = 10",104.4 U/L
same,Aspartate aminotransferase,"C57BL/6J mice [2]; daily IP dose 3 mg/kg, N = 10",150.9 U/L
same,Blood urea nitrogen,"C57BL/6J mice [2]; daily IP dose 3 mg/kg, N = 10",22.3 mg/dL
same,Cholesterol,"C57BL/6J mice [2]; daily IP dose 3 mg/kg, N = 10",80.9 mg/dL
same,Creatinine,"C57BL/6J mice [2]; daily IP dose 3 mg/kg, N = 10",0.3 mg/dL
same,Glucose,"C57BL/6J mice [2]; daily IP dose 3 mg/kg, N = 10",256.7 mg/dL
same,Lactate dehydrogenase,"C57BL/6J mice [2]; daily IP dose 3 mg/kg, N = 10",507.0 U/L
same,Total bilirubin,"C57BL/6J mice [2]; daily IP dose 3 mg/kg, N = 10",0.2 mg/dL
same,Total protein,"C57BL/6J mice [2]; daily IP dose 3 mg/kg, N = 10",4.7 g/dL
same,Alanine aminotransferase,"C57BL/6J mice [2]; daily IP dose 10 mg/kg, N = 9",38.4 U/L
same,Albumin,"C57BL/6J mice [2]; daily IP dose 10 mg/kg, N = 9",2.7 g/dL
same,Alkaline phosphatase,"C57BL/6J mice [2]; daily IP dose 10 mg/kg, N = 9",106.1 U/L
same,Aspartate aminotransferase,"C57BL/6J mice [2]; daily IP dose 10 mg/kg, N = 9",236.2 U/L
same,Blood urea nitrogen,"C57BL/6J mice [2]; daily IP dose 10 mg/kg, N = 9",24.1 mg/dL
same,Creatinine,"C57BL/6J mice [2]; daily IP dose 10 mg/kg, N = 9",0.2 mg/dL
same,Glucose,"C57BL/6J mice [2]; daily IP dose 10 mg/kg, N = 9",233.9 mg/dL
same,Lactate dehydrogenase,"C57BL/6J mice [2]; daily IP dose 10 mg/kg, N = 9",483.0 U/L
same,Total bilirubin,"C57BL/6J mice [2]; daily IP dose 10 mg/kg, N = 9",0.2 mg/dL
same,Total protein,"C57BL/6J mice [2]; daily IP dose 10 mg/kg, N = 9",4.6 g/dL
same,Cholesterol,"C57BL/6J mice [2]; daily IP dose 10 mg/kg, N = 9, p < 0.01 vs control",56.8** mg/dL
same,SC bioavailability,"[3]; 1 mg/kg SC vs IV, 2-m old WT mice","identical, within experimental error, to the IV administration"
same,Administered dose detected in the blood at the earliest time point,"[3]; 20 min, SC or IV 1 mg/kg",~ 30%
same,Initial CLR01 levels found in the plasma,[3]; 8 h following SC or IV administration,Approximately 5%
same,half-life,"[3]; mouse, plasma, subcutaneous, SC or IV 1 mg/kg",~2.5 h
same,Oral bioavailability,[3]; oral gavage 10 mg/kg,negligible
same,"Radioactivity levels in the brain, % of blood levels",[4],~ 2%
same,Inhibition of five major cytochrome P450 isoforms,[5],minimal inhibition
same,Stability,[6],100%
same,Effect in zebrafish model of α-syn toxicity,α-synuclein (α-syn),prevented deformation and mortality
